From ChEMBL document CHEMBL5291721, “A preclinical secondary pharmacology resource illuminates target-adverse drug reaction associations of marketed drugs” (Nat Commun, 2023) come the findings set out here.

Experiment [1] deals with Sodium-dependent dopamine transporter (Homo sapiens, UniProt Q01959).
In experiment [2] the target is T1, Alpha-2A adrenergic receptor (Homo sapiens, UniProt P08913).
T1 sequence (P08913 whole entry): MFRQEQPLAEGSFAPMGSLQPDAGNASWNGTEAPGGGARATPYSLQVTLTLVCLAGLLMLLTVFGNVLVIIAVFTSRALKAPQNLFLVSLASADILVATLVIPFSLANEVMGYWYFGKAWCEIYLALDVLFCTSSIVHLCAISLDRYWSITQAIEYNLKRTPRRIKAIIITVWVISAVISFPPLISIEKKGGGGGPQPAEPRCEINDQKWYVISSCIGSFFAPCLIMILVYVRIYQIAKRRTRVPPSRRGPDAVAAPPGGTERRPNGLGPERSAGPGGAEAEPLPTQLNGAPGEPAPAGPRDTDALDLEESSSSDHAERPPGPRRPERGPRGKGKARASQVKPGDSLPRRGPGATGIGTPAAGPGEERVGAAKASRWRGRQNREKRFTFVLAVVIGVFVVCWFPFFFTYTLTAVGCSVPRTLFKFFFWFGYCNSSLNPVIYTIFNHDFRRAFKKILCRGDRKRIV
It counts as functional, cell-based.

Experiment [3] addresses T2, Adenosine receptor A1 (Homo sapiens, UniProt P30542).
T2 sequence (P30542 whole entry): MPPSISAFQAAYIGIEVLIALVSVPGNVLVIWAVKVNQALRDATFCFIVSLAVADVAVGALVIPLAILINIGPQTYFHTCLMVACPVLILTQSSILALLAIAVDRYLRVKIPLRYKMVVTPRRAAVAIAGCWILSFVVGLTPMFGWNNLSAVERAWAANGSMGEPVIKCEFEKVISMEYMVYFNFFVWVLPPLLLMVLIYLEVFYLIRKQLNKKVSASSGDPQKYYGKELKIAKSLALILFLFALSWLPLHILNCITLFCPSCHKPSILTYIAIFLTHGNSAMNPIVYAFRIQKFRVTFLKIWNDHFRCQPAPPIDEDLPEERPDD

In experiment [4] the target is T3, Prostaglandin G/H synthase 1 (Rattus norvegicus, UniProt Q63921).
T3 sequence (Q63921 whole entry): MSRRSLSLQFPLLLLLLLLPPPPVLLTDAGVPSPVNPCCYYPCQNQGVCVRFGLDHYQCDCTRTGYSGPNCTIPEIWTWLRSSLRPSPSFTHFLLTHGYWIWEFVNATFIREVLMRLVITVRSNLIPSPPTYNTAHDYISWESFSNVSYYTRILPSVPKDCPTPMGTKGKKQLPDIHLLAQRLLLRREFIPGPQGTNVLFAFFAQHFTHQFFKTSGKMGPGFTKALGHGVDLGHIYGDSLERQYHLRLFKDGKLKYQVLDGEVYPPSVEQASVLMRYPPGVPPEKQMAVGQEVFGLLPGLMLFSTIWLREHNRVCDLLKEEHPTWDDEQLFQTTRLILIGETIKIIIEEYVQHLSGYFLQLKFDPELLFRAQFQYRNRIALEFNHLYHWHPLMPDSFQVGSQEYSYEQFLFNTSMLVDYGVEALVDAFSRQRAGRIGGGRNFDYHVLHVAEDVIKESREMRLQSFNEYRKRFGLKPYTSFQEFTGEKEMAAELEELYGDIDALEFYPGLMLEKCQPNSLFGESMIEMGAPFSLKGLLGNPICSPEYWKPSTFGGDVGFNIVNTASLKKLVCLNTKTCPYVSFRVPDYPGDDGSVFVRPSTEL
The format is functional.

The target of experiment [5] is Mu-type opioid receptor (Homo sapiens, UniProt P35372).
Sequence of Mu-type opioid receptor (P35372 whole entry): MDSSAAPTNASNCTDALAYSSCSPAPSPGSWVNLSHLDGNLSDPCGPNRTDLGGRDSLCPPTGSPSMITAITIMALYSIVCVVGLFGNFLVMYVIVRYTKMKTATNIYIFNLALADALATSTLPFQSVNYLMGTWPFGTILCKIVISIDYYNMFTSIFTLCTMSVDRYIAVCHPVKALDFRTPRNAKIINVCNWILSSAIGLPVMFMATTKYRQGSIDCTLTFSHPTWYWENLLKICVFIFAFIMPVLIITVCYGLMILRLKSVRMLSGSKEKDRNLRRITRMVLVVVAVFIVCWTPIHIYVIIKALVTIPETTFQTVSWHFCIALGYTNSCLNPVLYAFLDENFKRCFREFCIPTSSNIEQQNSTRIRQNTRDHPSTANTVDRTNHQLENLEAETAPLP
Experiment [6] deals with Sodium-dependent serotonin transporter (Homo sapiens, UniProt P31645).
Sequence of Sodium-dependent serotonin transporter (P31645 whole entry): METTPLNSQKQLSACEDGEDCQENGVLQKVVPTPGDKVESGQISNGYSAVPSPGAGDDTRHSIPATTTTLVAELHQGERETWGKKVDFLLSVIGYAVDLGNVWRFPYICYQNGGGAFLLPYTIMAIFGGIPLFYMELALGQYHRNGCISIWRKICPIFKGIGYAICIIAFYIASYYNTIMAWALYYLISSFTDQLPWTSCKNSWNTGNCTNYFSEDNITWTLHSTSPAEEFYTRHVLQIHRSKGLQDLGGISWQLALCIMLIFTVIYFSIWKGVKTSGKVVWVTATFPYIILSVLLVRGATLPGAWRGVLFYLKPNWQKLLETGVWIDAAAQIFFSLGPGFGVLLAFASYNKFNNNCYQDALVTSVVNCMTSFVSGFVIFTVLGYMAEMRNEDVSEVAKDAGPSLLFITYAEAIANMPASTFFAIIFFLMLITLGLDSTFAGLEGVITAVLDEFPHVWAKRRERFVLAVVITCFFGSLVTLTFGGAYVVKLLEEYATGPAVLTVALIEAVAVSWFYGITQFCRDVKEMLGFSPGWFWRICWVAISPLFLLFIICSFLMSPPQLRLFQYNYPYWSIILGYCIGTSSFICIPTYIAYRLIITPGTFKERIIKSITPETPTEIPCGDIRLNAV
In experiment [7] the target is T4, Muscarinic acetylcholine receptor M1 (Homo sapiens, UniProt P11229).
T4 sequence (P11229 whole entry): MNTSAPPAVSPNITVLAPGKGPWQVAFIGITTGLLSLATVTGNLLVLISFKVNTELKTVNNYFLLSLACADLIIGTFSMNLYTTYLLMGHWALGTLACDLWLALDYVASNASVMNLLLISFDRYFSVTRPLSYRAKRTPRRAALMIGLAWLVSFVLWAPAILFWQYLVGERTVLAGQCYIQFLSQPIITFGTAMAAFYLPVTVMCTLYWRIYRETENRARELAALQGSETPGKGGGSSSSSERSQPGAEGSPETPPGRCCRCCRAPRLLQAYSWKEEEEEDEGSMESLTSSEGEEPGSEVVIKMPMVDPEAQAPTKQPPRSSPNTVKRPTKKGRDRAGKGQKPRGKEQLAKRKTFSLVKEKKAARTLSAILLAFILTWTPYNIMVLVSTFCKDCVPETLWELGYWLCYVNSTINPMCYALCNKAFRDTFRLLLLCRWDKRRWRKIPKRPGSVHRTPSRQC
It counts as functional, cell-based.

Experiment [8] concerns the target T5, Estrogen receptor (Homo sapiens, UniProt P03372).
T5 sequence (P03372 whole entry): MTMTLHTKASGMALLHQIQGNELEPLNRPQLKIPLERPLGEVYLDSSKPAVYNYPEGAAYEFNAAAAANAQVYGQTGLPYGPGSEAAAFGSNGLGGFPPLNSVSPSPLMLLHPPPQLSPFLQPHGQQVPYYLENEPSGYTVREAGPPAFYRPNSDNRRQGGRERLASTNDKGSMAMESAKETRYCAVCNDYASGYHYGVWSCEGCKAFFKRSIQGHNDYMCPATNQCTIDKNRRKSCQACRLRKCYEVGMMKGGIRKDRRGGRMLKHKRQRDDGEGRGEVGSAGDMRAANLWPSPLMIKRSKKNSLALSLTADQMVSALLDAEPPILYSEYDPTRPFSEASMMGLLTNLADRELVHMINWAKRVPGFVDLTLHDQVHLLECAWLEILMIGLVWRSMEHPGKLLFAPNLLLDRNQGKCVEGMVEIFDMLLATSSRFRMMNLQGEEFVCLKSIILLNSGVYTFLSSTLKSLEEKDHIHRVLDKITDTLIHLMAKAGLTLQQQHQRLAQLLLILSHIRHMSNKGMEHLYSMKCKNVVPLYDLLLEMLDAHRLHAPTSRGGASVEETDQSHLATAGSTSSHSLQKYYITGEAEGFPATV

The target of experiment [9] is Voltage-dependent L-type calcium channel subunit alpha-1C (Rattus norvegicus, UniProt P22002). The format is functional.
Sequence of Voltage-dependent L-type calcium channel subunit alpha-1C (P22002 whole entry): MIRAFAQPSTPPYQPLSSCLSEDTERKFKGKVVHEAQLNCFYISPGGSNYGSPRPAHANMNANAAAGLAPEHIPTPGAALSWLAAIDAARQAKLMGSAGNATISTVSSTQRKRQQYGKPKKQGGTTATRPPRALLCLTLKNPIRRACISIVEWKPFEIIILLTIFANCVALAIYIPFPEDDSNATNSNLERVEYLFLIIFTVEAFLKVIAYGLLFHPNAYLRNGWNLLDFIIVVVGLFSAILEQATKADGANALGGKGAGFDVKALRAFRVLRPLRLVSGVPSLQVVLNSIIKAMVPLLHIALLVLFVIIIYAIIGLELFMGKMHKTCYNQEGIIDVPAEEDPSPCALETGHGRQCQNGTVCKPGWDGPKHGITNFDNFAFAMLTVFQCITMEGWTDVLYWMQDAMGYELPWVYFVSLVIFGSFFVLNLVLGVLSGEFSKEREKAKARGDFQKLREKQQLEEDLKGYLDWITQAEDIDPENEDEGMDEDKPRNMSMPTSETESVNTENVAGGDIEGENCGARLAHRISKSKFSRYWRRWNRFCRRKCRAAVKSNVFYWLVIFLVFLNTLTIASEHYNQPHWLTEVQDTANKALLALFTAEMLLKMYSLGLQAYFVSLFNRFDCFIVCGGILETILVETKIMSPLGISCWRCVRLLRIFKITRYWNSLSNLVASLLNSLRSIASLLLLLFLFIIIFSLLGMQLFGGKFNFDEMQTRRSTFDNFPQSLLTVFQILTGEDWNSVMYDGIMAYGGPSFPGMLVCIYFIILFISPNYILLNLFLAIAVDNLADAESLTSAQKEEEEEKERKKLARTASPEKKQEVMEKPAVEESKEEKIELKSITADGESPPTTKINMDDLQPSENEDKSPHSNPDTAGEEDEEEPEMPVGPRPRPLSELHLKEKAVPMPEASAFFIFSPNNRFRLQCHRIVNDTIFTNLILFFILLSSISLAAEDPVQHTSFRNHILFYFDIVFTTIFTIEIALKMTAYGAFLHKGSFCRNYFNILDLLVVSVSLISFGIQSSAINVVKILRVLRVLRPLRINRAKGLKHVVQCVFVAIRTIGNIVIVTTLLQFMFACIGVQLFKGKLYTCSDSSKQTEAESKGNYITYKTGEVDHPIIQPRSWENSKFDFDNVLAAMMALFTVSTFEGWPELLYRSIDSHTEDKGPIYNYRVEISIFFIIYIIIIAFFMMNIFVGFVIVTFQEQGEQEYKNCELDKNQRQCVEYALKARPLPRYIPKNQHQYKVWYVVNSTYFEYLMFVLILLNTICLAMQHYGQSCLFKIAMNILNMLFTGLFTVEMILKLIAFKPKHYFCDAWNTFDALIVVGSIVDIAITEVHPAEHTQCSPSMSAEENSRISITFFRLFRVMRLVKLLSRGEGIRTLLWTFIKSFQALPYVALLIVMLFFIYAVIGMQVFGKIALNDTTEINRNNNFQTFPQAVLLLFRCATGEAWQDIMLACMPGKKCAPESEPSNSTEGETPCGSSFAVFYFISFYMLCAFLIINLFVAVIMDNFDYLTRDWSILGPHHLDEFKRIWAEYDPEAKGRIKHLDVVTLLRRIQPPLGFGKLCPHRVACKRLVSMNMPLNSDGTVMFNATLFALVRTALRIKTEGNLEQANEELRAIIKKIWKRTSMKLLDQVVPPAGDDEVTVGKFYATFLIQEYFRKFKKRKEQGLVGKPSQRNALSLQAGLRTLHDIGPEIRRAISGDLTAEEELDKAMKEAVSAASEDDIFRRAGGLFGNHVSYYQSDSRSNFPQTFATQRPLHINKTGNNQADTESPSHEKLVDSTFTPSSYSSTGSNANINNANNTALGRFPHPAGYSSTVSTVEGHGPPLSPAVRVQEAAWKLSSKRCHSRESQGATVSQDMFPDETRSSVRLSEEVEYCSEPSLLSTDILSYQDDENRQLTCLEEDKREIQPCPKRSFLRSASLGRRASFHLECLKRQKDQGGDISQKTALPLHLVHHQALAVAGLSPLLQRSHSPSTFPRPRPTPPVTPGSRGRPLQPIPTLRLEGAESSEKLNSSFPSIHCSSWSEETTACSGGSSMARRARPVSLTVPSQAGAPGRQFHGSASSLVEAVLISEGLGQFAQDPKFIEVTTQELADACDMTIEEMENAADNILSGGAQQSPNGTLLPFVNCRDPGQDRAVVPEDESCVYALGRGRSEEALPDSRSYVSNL

*1 amine or outer side, *2 acyl side, *3 side chain or, on linkers, in order; H or OH if unused. Where a SMILES comes first, the peptide text is derived from it. Bridges are numbered along the chain shown (N, C = ends). [ ]: non-standard residue; d: D form. The star is where a group is joined. hTyr(3S-OH,4S-OH,3'-OSO3H) = N[C@H](C(=O)O)[C@H](O)[C@@H](O)c1ccc(O)c(OS(=O)(=O)O)c1; Orn(4R-OH,5R-OH) = O=C([C@H](C[C@@H](O)[C@@H](O)N[*:3])N[*:1])[*:2]; Pro(3S-OH,4S-Me) = C[C@H]1CN[C@H](C(=O)O)[C@H]1O; X1 = CCCCCOc1ccc(-c2cc(-c3ccc(C(=O)*)cc3)no2)cc1; Gln(3R-OH) = NC(=O)C[C@@H](O)[C@H](N)C(=O)O; Hyp = O=C(O)[C@@H]1C[C@@H](O)CN1
Further: assay procedure not described here.

Sequence of Sodium-dependent dopamine transporter (Q01959 whole entry): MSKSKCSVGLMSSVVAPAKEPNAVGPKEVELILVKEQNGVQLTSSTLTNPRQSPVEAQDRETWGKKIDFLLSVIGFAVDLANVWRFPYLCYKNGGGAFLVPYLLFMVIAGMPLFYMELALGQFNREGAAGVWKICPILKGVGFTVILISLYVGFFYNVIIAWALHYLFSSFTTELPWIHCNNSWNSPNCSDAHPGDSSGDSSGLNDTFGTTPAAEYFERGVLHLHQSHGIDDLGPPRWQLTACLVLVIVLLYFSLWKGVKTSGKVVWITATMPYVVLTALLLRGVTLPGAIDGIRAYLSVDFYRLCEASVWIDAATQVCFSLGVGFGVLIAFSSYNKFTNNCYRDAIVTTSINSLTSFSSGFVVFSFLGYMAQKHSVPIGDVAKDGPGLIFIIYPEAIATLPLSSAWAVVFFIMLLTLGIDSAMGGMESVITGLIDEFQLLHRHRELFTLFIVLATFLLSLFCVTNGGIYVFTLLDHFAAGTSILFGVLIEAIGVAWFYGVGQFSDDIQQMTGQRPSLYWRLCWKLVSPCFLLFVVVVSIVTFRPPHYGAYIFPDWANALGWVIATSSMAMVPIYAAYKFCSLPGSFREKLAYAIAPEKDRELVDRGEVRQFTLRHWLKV

Regarding `CC(=N)N1CC[C@H](SC2=C(C(=O)O)N3C(=O)[C@H]([C@@H](C)O)[C@H]3C2)C1`, the AC50 – broadly, the midpoint of the concentration-response curve, whichever way the signal moves – in experiment [1] is 270 µM; in experiment [2], greater than 300 µM; in experiment [3] it was greater than 300 µM; in [4], 5.1 µM; in [5] it was greater than 300 µM.
As for `O=C(O)COc1nn(Cc2ccccc2)c2ccccc12` [BENDAZAC], the AC50 in experiment [6], in [7] and in experiment [8] was greater than 30 µM in each case.
For `Cc1ccc([C@@H]2O[C@H](CO)[C@@H](O)[C@H](O)[C@H]2O)cc1Cc1ccc(-c2ccc(F)cc2)s1` [CANAGLIFLOZIN ANHYDROUS], the AC50 in experiment [6] was 26.1 µM; in experiment [7], greater than 30 µM; in experiment [8] it was greater than 30 µM.
As for `O=C(O)c1cc(=O)c2ccccc2o1` [CHROMOCARB], the AC50 in experiment [6], in experiment [7] and in [8] was greater than 30 µM each time.
As for `CN(CC(=O)O)C(=N)N` [CREATINE], the AC50 in experiment [6], in experiment [7] and in experiment [8] was greater than 30 µM throughout.
For the compound `C[C@]12CC[C@@H]3c4ccc(O)cc4CC[C@H]3[C@@H]1CC[C@@H]2OC(=O)CCC1CCCC1` [ESTRADIOL CYPIONATE], the concentration at half-maximal activity (AC50) in experiment [6] was greater than 30 µM; in [7] it was greater than 30 µM; in experiment [8], 0.379 µM.
On to `CC1(C)O[C@@H]2C[C@H]3[C@@H]4C[C@H](F)C5=CC(=O)C=C[C@]5(C)[C@H]4[C@@H](O)C[C@]3(C)[C@]2(C(=O)CO)O1` [FLUNISOLIDE], for which the half-maximal activity concentration (AC50) in experiment [1] is greater than 30 µM; in experiment [2] it was 2 µM; in experiment [3] it was greater than 30 µM; in experiment [4], greater than 30 µM; in experiment [5], greater than 30 µM.
`C[C@]12CCC(=O)C=C1CC[C@@H]1[C@@H]2[C@@H](O)C[C@@]2(C)[C@H]1CC[C@]2(O)C(=O)COC(=O)CCC(=O)O` [HYDROCORTISONE HEMISUCCINATE ANHYDROUS]: the half-maximal activity concentration (AC50) in [6], in experiment [7] and in [8] was greater than 30 µM throughout.
Turning to `N=C(N)NCc1cccc([123I])c1` [IOBENGUANE I 123], the concentration at half-maximal activity (AC50) in experiment [6], in experiment [7] and in experiment [8] was greater than 30 µM each time.
Take `C[C@H]1Oc2cc(cnc2N)-c2c(nn(C)c2C#N)CN(C)C(=O)c2ccc(F)cc21` [LORLATINIB]: the half-maximal activity concentration (AC50) in experiment [1], in experiment [2], in [3], in [4] and in experiment [5] was greater than 30 µM each time.
In the case of `CC(C)(N)C(=O)N[C@H](Cc1c[nH]c2ccccc12)C(=O)N[C@H](Cc1c[nH]c2ccccc12)NC=O` [MACIMORELIN], the AC50 in experiment [6], in experiment [7] and in experiment [8] was greater than 30 µM each time.
Take `C=C1c2c(Cl)ccc(O)c2C(=O)C2=C(O)[C@]3(O)C(=O)C(C(N)=O)=C(O)[C@@H](N(C)C)[C@@H]3[C@@H](O)[C@H]12` [MECLOCYCLINE]: the AC50 in [6], in experiment [7] and in experiment [8] was greater than 30 µM throughout.
Take `Cc1cc2c(OCC(O)CNC(C)C)cccc2[nH]1` (stereo not given) [MEPINDOLOL]: the AC50 in experiment [6], in experiment [7] and in experiment [8] was greater than 30 µM in each case.
As for `CCCCCOc1ccc(-c2cc(-c3ccc(C(=O)N[C@H]4C[C@@H](O)[C@@H](O)NC(=O)[C@@H]5[C@@H](O)[C@@H](C)CN5C(=O)[C@H]([C@H](O)CC(N)=O)NC(=O)[C@H]([C@H](O)[C@@H](O)c5ccc(O)c(OS(=O)(=O)O)c5)NC(=O)[C@@H]5C[C@@H](O)CN5C(=O)[C@H]([C@@H](C)O)NC4=O)cc3)no2)cc1` [MICAFUNGIN] (X1-[Orn(4R-OH,5R-OH)]T[Hyp][hTyr(3S-OH,4S-OH,3'-OSO3H)][Gln(3R-OH)][Pro(3S-OH,4S-Me)]; lactam 1-C), the AC50 in experiment [6] is greater than 30 µM; in experiment [7], 9.05 µM; in experiment [8] it was 7.25 µM.
For `CCOc1ccc2ccccc2c1C(=O)N[C@@H]1C(=O)N2[C@@H]1SC(C)(C)[C@@H]2C(=O)O` [NAFCILLIN], the AC50 in experiment [6], in [7] and in experiment [8] was greater than 30 µM throughout.
With `CC(=O)Oc1ccccc1C(=O)Nc1ncc([N+](=O)[O-])s1` [NITAZOXANIDE], the AC50 in experiment [1] was 7.3 µM; in [6] it was greater than 30 µM; in experiment [2], 19 µM; in [3], 7.1 µM; in [4] it was 0.0031 µM; in [7], 4.33 µM. Further, the AC50 in experiment [8] and in [9] was greater than 30 µM throughout.
With `CCCCCCCCCCC[C@@H](C[C@@H]1OC(=O)[C@H]1CCCCCC)OC(=O)[C@H](CC(C)C)NC=O` [ORLISTAT], the AC50 in experiment [6], in experiment [7] and in [8] was greater than 30 µM throughout.
On to `O=C1[C@H]2CCCC[C@H]2C(=O)N1CCCCN1CCN(c2nsc3ccccc23)CC1` [PEROSPIRONE], for which the figures for the AC50 in [6], in [7] and in experiment [8] were 3.73 µM, 10.3 µM and greater than 30 µM, respectively.
In the same order, the values of `CC(C)(C)C(=O)NCCCC(=O)O` [PIVAGABINE] are greater than 30 µM, greater than 30 µM and greater than 30 µM.
Regarding `CC(C)[N+](C)(CCOC(=O)C1c2ccccc2Oc2ccccc21)C(C)C` [PROPANTHELINE], the results for the AC50 in experiment [6], in experiment [7] and in experiment [8] were greater than 30 µM, 0.003 µM and greater than 30 µM, respectively.
With `CN(C)C(=O)c1nc(CNC(=O)CN)n(-c2ccc(Cl)cc2C(=O)c2ccccc2Cl)n1` [RILMAZAFONE], the AC50 in experiment [6], in experiment [7] and in experiment [8] was greater than 30 µM throughout.
Regarding `NC(=O)NS(=O)(=O)c1ccc(N)cc1` [SULFACARBAMIDE], the AC50 in experiment [6], in experiment [7] and in [8] was greater than 30 µM throughout.
Take `NCCc1ccc(O)cc1` [TYRAMINE]: the AC50 in experiment [6], in experiment [7] and in experiment [8] was greater than 30 µM each time.
